The values that follow come from ChEMBL document CHEMBL6078647 (J Med Chem, 2024).

In data set [1] the target is T1, Type-1 angiotensin II receptor (Homo sapiens) (UniProt P30556).
T1 sequence (whole entry): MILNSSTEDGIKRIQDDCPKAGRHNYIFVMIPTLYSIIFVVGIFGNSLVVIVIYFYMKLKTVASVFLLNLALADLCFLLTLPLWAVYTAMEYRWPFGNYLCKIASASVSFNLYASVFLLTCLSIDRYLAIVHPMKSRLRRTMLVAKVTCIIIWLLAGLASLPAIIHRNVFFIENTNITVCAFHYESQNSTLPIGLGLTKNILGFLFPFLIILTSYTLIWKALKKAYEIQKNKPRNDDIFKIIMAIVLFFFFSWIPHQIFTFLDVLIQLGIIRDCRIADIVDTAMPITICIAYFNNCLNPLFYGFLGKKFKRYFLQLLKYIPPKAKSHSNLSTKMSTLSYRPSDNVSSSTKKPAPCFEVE
As to the kind of experiment: Binding affinity to Flag-tagged AT1R (unknown origin) extracted from HEK293 cell membrane assessed as increase in median red fluorescence intensity at 1 nM incubated for 15 mins by flow cytometric analysis. It is filed as cell membranes. Particulars: filed as antagonist.

Data set [2] is filed under the species Homo sapiens. Briefly: Selectivity index, ratio of Ki for binding affinity to human AT2R extracted from HEK293T cell membrane in presence of [125I][Sar1 Ile8]-angiotensin II by competitive radioligand binding assay to Ki for binding affinity to human AT1R extracted from HEK293T cell membrane in presence of [125I][Sar1 Ile8]-angiotensin II by competitive radioligand binding assay.

In data set [3] the target is T2, Type-1 angiotensin II receptor (Homo sapiens, UniProt P30556).
T2 sequence (P30556 whole entry): T1 sequence (whole entry)
Briefly: Binding affinity to human AT1R extracted from HEK293T cell membrane assessed as inhibition constant in presence of [125I][Sar1 Ile8]-angiotensin II by competitive radioligand binding assay. It is filed as cell membranes. Particulars: read-out: Ki.

Data set [4] concerns the target T2, Type-1 angiotensin II receptor. Briefly: Antagonist activity at Flag-tagged AT1R (unknown origin) extracted from HEK293 cell membrane co expressing YPET-ARRB1 assessed as beta-arrestin 1 recruitment using NanoGlo as substrate preincubated for 30 mins followed by substrate addition for 10 mins by BRET assay. It is filed as functional, cell membranes.
For data set [5], the target named is T3, Type-2 angiotensin II receptor (Homo sapiens, UniProt P50052).
T3 sequence (P50052 whole entry): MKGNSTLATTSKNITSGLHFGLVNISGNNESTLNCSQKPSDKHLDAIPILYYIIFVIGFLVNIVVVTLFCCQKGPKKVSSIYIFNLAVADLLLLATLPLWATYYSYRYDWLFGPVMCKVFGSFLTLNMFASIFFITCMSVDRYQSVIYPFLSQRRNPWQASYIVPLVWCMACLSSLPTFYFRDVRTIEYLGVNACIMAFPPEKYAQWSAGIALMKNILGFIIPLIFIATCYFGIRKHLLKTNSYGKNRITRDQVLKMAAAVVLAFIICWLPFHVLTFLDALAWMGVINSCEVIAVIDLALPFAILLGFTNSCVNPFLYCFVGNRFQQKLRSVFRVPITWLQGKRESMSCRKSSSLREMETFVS
Briefly: Binding affinity to human AT2R extracted from HEK293T cell membrane assessed as inhibition constant in presence of [125I][Sar1 Ile8]-angiotensin II by competitive radioligand binding assay. It is filed as cell membranes.

Data set [6] has as its target T1, Type-1 angiotensin II receptor (Homo sapiens). As to the kind of experiment: Binding affinity to Flag-tagged AT1R (unknown origin) extracted from HEK293 cell membrane assessed as increase in median red fluorescence intensity at > 30 nM incubated for 30 mins by flow cytometric analysis. It is filed as cell membranes. A general note: Flow cytometry measures light scatter and fluorescence of single cells or particles in a stream.

Data set [7] can be described thus: Fluorescence property of compound in HEPES buffer assessed as quantum yield. It is filed as physicochemical.
Data set [8] deals with T1, Type-1 angiotensin II receptor (Homo sapiens). Briefly: Binding affinity to GFP-tagged AT1R (unknown origin) extracted from HEK293 cell membrane assessed as fluorescent signal in plasma membrane incubated for 15 mins by confocal microscopic analysis. It is filed as cell membranes. Conditions: filed as antagonist.
Data set [9] addresses T2, Type-1 angiotensin II receptor. As to the kind of experiment: Antagonist activity at Flag-tagged AT1R (unknown origin) extracted from HEK293 cell membrane assessed as increase in intracellular calcium incubated for 30 mins by microplate reader analysis. It is filed as functional, cell membranes. For orientation: Calcium flux is commonly read through the fluorescence of an indicator in the cells.

Data set [10] shares this target. As to the kind of experiment: Antagonist activity at Flag-tagged AT1R (unknown origin) extracted from HEK293 cell membrane co expressing YPET-ARRB2 assessed as beta-arrestin 2 recruitment using NanoGlo as substrate preincubated for 30 mins followed by substrate addition for 10 mins by BRET assay. It is filed as functional, cell membranes. For orientation: Recruitment of arrestin is a read-out of receptor activation apart from second messengers.

Data set [11] has as its target T1, Type-1 angiotensin II receptor (Homo sapiens). Briefly: Binding affinity to human GFP-tagged AT1R (unknown origin) extracted from HEK293 cell membrane assessed as colocalization of AT1R in plasma membrane at 30 nM preincubated with losartan at 10 uM followed by compound addition for 30 mins by epifluorescence microscopic analysis. It is filed as cell membranes. Conditions: filed as antagonist.

Data set [12] deals with T2, Type-1 angiotensin II receptor. As to the kind of experiment: Binding affinity to GFP-tagged AT1R (unknown origin) extracted from HEK293 cell membrane assessed as dissociation constant. It is filed as cell membranes.
In data set [13] the target is T4, Type-2 angiotensin II receptor (Homo sapiens) (UniProt P50052).
T4 sequence (whole entry): T3 sequence (P50052 whole entry)
Briefly: Binding affinity to GFP-tagged AT2R (unknown origin) extracted from HEK293 cell membrane assessed as fluorescent signal in plasma membrane incubated for 15 mins by confocal microscopic analysis. It is filed as cell membranes.

The target of data set [14] is T1, Type-1 angiotensin II receptor (Homo sapiens). Briefly: Induction of human NLuc-tagged AT1R (unknown origin) internalization in HEK293 cells co expressing venus-MP assessed as inhibition of AgII-induced AT1R internalization using NanoGlo as substrate preincubated for 30 mins followed by substrate addition for 10 mins by BRET assay. It is filed as functional.

Active and inactive are the calls of the source. The calls are words filed in the database; no cut-off is given here.

Broadly, the Kd is a measure of binding affinity in units of concentration. Regarding `CCCCc1nc(Cl)c(C(=O)NCCOCCOCCNC(=O)CCCCCN2/C(=C/C=C/C3=[N+](C)c4ccccc4C3(C)C)C(C)(C)c3ccccc32)n1Cc1ccc(-c2ccccc2-c2nn[nH]n2)cc1.F[B-](F)(F)F`, the result in data set [1], in [8] and in [11] was Active. Further, in [2], the Ratio Ki amounted to 521. The Ki was 10.7 nM in data set [3], 5570 nM in data set [5] (read-out: Ki) and 3020 nM in data set [5] (read-out: pKi (converted)). The EC50 entry in [4], in data set [9] and in data set [10] was “Active” throughout. For the same compound, the outcome in data set [6] and in data set [13] was inactive. Also, the figures for the Activity in data set [7] and in [14] were 0.232 and “Dose-dependent-effect”, respectively. Also, the Kd in data set [12] was approximately 30 nM.
